Entries after “also recorded” stand apart in the source; their conditions may differ.
Tests used:
[1] = tested on: ENR+CD organoids (ISC to Paneth cell differentiation); experiment: Primary screen: basal (non-stimulated) lysozyme secretion LYZ.NS, 2.5-D 384-well ENR+CD organoid differentiation; format: cell-based, mouse; conditions: for Dose.FC.LYZ.NS (log2 fold change) / Z.LYZ.NS (standard z score): primary screen
Excerpt: High-throughput screening.

ENR+CD organoids [2] = experiment: Secondary (validation) screen: ATP (CTG) assay, 2.5-D 384-well ENR+CD organoids; format: cell-based, mouse; conditions: 6-day ENR+CD, vs ENR+CD+DMSO
intestinal organoids = experiment: Population RNA-sequencing of treated organoids; format: cell-based, mouse
Method: Population RNA-sequencing. Population RNA-seq was performed using a derivative of the Smart-Seq2 protocol for single cells. In brief, organoid media was aspirated and RLT+BME (Qiagen) was added to each well, and plate shaken for 30 minutes to fully lyse. Lysate was aliquoted into 4 identical fractions and stored at −80° C. until reverse transcription. RNA lysate was thawed and cleaned with a 2.2×SPRI ratio using Agencourt RNAClean XP beads (Beckman Coulter, A63987). RNA-seq was performed on a bulk population of sorted basal cells using Smart-Seq2 chemistry, starting with a 2.2×SPRI ratio cleanup. After oligo-dT priming, Maxima H Minus Reverse Transcriptase (ThermoFisher EP0753) was used to synthesize cDNA with an elongation step at 52° C. before PCR amplification (15 cycles for tissue, 18 cycles for sorted basal cells) using KAPA HiFi PCR Mastermix (Kapa Biosystems KK2602). Sequencing libraries were prepared using the Nextera XT DNA tagmentation kit (Illumina FC-131-1096) with 250 pg input for each sample. Libraries were pooled post-Nextera and cleaned using Agencourt AMPure SPRI beads with successive 0.7× and 0.8× ratio SPRIs and sequenced with an Illumina 75 Cycle NextSeq500/550v2 kit (Illumina FC-404-2005) with loading density at […], with paired end 35 cycle read structure. Samples were sequenced at an average read depth of 8.44 million reads per sample and a total of 96 samples.
Organoid samples were aligned to the Mm10 genome and transcriptome using STAR and RSEM. […] For module scoring with the in vivo Paneth and enteroendocrine cell-defining genes, Applicants used previously published gene sets and computed per sample module scores through the Seurat package.

[3] = tested on: ENR+CD organoids, stem II/III cells; experiment: Single-cell RNA-sequencing (Seq-Well) of organoid differentiation time course; format: cell-based, mouse
Excerpt: For time points beyond 2 days, media was refreshed every other day. Following the Seq-Well protocol Applicants followed a standard library preparation, sequencing, and alignment process (see Methods).
Single-cell RNA-sequencing. A single-cell suspension was obtained from organoids cultured under conditions for the differentiation time course as described above. Applicants utilized the Seq-Well platform for massively parallel scRNA-seq to capture transcriptomes of single cells on barcoded mRNA capture beads. […] In brief, 20,000 cells from one organoid condition were loaded onto one array containing 100,000 barcoded mRNA capture beads. The loaded arrays containing cells and beads were then sealed using a polycarbonate membrane with a pore size of 0.01 μm, which allows for exchange of buffers but retains biological molecules confined within each microwell. Subsequent exchange of buffers allows for cell lysis, transcript hybridization, and bead recovery before performing reverse transcription en masse. Following reverse transcription and exonuclease treatment to remove excess primers, PCR amplification was carried out using KAPA HiFi PCR Mastermix with 2,000 beads per 50 μL reaction volume. Libraries were then pooled and purified using Agencourt AMPure XP beads (Beckman Coulter, A63881) by a 0.6×SPRI followed by a 0.8×SPRI and quantified using Qubit hsDNA Assay (Thermo Fisher). Libraries were constructed using the Nextera Tagmentation method on a total of 800 pg of pooled cDNA library per sample. […] Arrays were sequenced with an Illumina NovaSeq System. The read structure was paired end with Read 1 starting from a custom read 1 primer containing 20 bases with a 12 bp cell barcode and 8 bp unique molecular identifier (UMI) and Read 2 being 50 bases containing transcript information.
Single-cell RNA-sequencing computational pipelines and analysis.

[4] = mouse, in vivo, po
ENR+CD organoids [5] = experiment: Primary screen: ATP (CellTiter-Glo 3D, CTG) cell number/viability, 2.5-D 384-well ENR+CD organoids; conditions: for Dose.FC.CTG (log2 fold change): primary screen;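 for all read-outs here: compounds given at plating and again on day 3 over a 6-day differentiation from ENR+CV stem-cell-enriched precursors, ATP measured on day 6, plate median as control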
[6] = stem II/III, day 0.25-2, FDR<0.05

## O=C(/C=C\n1cnc(-c2cc(C(F)(F)F)cc(C(F)(F)F)c2)n1)NNc1cnccn1 [KPT-330]
[1]; LYZ.NS and LYZ.S, 0.08-10 uM, 6 days ENR+CD
  primary screen hit call (SSMD and z-scored FC cutoffs in both LYZ assays): sole hit in their respective pathway
[1]; dose 0.08 uM
  Dose.FC.LYZ.NS (log2 fold change): 0.200
  Z.LYZ.NS (standard z score): 1.745
[1]; dose 0.40 uM
  Dose.FC.LYZ.NS (log2 fold change): −0.266
  Z.LYZ.NS (standard z score): −2.317
[1]; dose 2.00 uM
  Dose.FC.LYZ.NS (log2 fold change): −0.280
  Z.LYZ.NS (standard z score): −2.439
[1]; dose 10.00 uM
  Dose.FC.LYZ.NS (log2 fold change): −0.284
  Z.LYZ.NS (standard z score): −2.470
ENR+CD organoids [2]; 0.02 uM
  Dose.FC.CTG: 0.126 log2 fold change
ENR+CD organoids [2]; 0.04 uM
  Dose.FC.CTG: 0.029 log2 fold change
ENR+CD organoids [2]; 0.08 uM
  Dose.FC.CTG: 0.141 log2 fold change
ENR+CD organoids [2]; […]
  Dose.FC.CTG: 0.120 log2 fold change
Intestinal organoids; ENR and ENR+CD
  number of differentially expressed genes among hit compounds: most differentially expressed genes
Intestinal organoids; ENR+CV, ENR+CD or ENR
  secretory cell gene set scores (Paneth, goblet, EEC) from bulk transcripts: increase secretory cells (Paneth, goblet, and EEC)
[3]; 160 nM KPT-330 in ENR+CD
  day 6 Paneth cell odds ratio (OR), treated vs control: ~2
[3]; 160 nM KPT-330 in ENR+CD vs ENR+CD, day 0.25-6
  organoid cell type composition over differentiation time course: enhances stem conversion to mature cells; also recorded: relative depletion of stem I (and stem II & III) and enteroendocrine cells over time along with the corresponding enrichment of enterocytes and Paneth cells
[3]; KPT-330 treated vs control cells
  Atf3 (ATF3) expression: upregulated
[3]; early stem II/III cells
  active / quiescent ISC signature in early stem cell populations: induces a quiescent ISC signature and reduces an active ISC signature; also recorded: transition into quiescence
[3]; [6]
  GSEA hallmark programs: mitogen-driven signaling (E2F, MYC targets, G2M checkpoint): suppresses programs downstream of mitogen-driven signaling
  GSEA hallmark programs: stress response (NFkB signaling, hypoxia, inflammatory response): up-regulating programs broadly resembling a complex stress response
[4]
  toxicity to mice (body weight): toxic to mice
ENR+CD organoids [5]; concentrations higher than 160 nM, 6 days
  toxicity in primary screening: toxic
ENR+CD organoids [5]; dose 0.08 uM
  Dose.FC.CTG (log2 fold change): 0.210
ENR+CD organoids [5]; dose 0.40 uM
  Dose.FC.CTG (log2 fold change): −0.657
ENR+CD organoids [5]; dose 2.00 uM
  Dose.FC.CTG (log2 fold change): −0.894
ENR+CD organoids [5]; dose 10.00 uM
  Dose.FC.CTG (log2 fold change): −1.876

Source: patent publication US20220323406A1, “METHODS AND COMPOSITIONS FOR DIFFERENTIATING STEM CELLS” (Massachusetts Institute of Technology, priority 2019, published 2022)
